Test results published in patent US5032398A, “Selective modification of the catalytic subunit of pertussis toxin” (priority 1986, dated 1991).
“And” between values parts separate entries of the source, which are not always exact repeats. Equal entries are not always repeated. Where two headings read alike, the source gives them in different places.

Columns and labels:
pertussis toxin [1] = target: T1, pertussis toxin (Bordetella pertussis, UniProt P04977); assay: NADase activity in the presence of sulfhydryl reducing agents (Example Five); type: biochemical
Procedure: In the description herein, activation constants for the substances may be expressed by a numerical value (A0.5) by using an NADase assay.
(§1) The pertussis toxin in the Examples comprised 50 μg of the toxin in a 500 μl solution of 10 mM sodium phosphate-50 mM sodium chloride-water solution having a pH of 7. The enzymatic activity was detected as the hydrolysis of nicotinamide labelled NAD and ion-exchange column chromatography to resolve the product from the substrate. Unless otherwise noted, the assay was initiated by adding 0.5 to 2.5 μg of the toxin to a reaction mixture for a final volume of 100 μl. The NADase reaction was terminated by adding 0.85 ml of ice-cold water. The entire 0.95 ml was then pipetted into a QAE-Sephadex column (chloride form) and the labelled nicotinamide eluted with 3 ml of water directly into a scintillation vial and counted. […] One unit of NADase activity is defined as 1 pmol NAD hydrolyzed per hour.
Pertussis toxin NADase activity was assayed in the presence of various sulfhydryl reducing agents at various concentrations. The assay buffer contained 1% CHAPS and 1 mM ATP.

pertussis toxin [2] = target: T1, pertussis toxin; assay: Effect of detergents on the NADase activity of pertussis toxin (Example Four); type: biochemical; conditions: 1 mM ATP, 10 mM DTT; for Fractional Activity with CHAPS: detergent 1 weight percent plus CHAPS 1%; for Fractional Activity with CHAPS / Fractional Activity without CHAPS: relative to 1% CHAPS alone; for Fractional Activity without CHAPS: detergent 1 weight percent
Procedure: as §1
The effect of detergents on the NADase activity of pertussis toxin was measured in the presence of various detergents at a concentration of 1 weight percent in either the absence or presence of the detergent CHAPS (1 percent by weight). ATP was present in all assays in a concentration of 1 mM, and DTT concentration was 10 mM. Fractional activity is shown in Table III and is defined as activity divided by activity in the presence of 1% CHAPS. The value given is the average for two separate trials, and in each trial duplicates were measured for each condition.

pertussis toxin [3] = target: T1, pertussis toxin; assay: NADase activity of pertussis toxin after activation and treatment with alkylating reagent (Example One); type: biochemical
Text: The ADP-ribosylating activity of the pertussis toxin can be detected as a nicotinamide-adenine dinucleotide-glycohydrolase (NADase) activity, which can be conveniently assayed through the use of [nicotinamide-^14 C] or [nicotinamide-^3 H] NAD. NAD consists of ADP-ribose linked to nicotinimide, and thus the extent of the release of ADP-ribose from NAD is an indication of the ability of the toxin to cause ill effects. In conducting this assay of the hydrolysis of labelled NAD, ion-exchange column chromatography was employed to resolve the product from the substrate according to the method described by Moss et al., J. Biol. Chem. 258, 11879 (1983) which is incorporated herein by reference. However, several modifications to this method were employed. First, a QAE-Sephadex resin was employed, as was a [nicotinamide-^3 H] NAD. Specifically, a 2 ml QAE-Sephadex column was first washed with 10 ml 1NHCl, followed by 10 ml H2 O, 20 ml 0.5M Tris-HCl pH 7.0, and 40 ml H2 O. [^3 H] NAD was applied, and the column washed with 20 ml water to elute impurities. Purified [^3 H] NAD was eluted with 0.25M NaCl, and stored in small aliquots at -70° C. The purified [^3 H] NAD contributed 50 mM NaCl (final concentration) to the NADase assays.
Before the end of the reaction, 2 ml QAE-Sephadex columns were treated with 10 ml 0.1M imidazole-HCl pH 7.0 with 1.0M NaCl, followed by 40 ml water. The NADase reaction (in 100 μl) was terminated by adding 0.85 ml of ice-cold water, and the entire 0.95 ml was pipetted into a treated QAE column. The labelled nicotinamide was then eluted with 3 ml of water directly into a scintillation vial and counted. The absorbed labelled NAD was then eluted into radioactive waste with 10 ml 0.1M imidazole-HCl pH 7.0 with 1.0M NaCl, and the column stored partially immersed in a water bath until the next assay.
In order to determine if any active toxin remained after the inactivation, a large excess of sulfhydryl reductant was added to each tube to scavenge unreacted sulfhydryl reagent. The NADase activity of the preparation was then measured. The three incubations were performed under a nitrogen atmosphere using degassed solutions to prevent oxidation of sulfhydryl groups which would prevent the sulfhydryl reagent from modifying the sulfhydryl group.
as §1
One-half microgram of pertussis toxin was incubated for thirty minutes at […] in 100 mM Tris-HCl (pH 8.0), with or without activators, in a volume of 50 μl. When present, ATP and pyrophosphate were present in a concentration of 2 mM, CHAPS at 2 weight percent, and DTT in a concentration of either 2 mM (trial 1) or 1 mM (trial 2). 10 μl of water with or without iodoacetate or N-ethylmaleimide was then added and a second incubation conducted at 30° C. for either thirty minutes (trial 1) or fifteen minutes (trial 2). After this incubation, 10 μl of 200 mM DTT was added to each tube, and the tubes were incubated for thirty (trial 1) or sixty minutes (trial 2) on ice to scavenge the iodoacetate or N-ethylmaleimide.

pertussis toxin [4] = target: T1, pertussis toxin; assay: Inactivation of NADase activity by sulfhydryl reagents, 6 minutes or 18 hours at 0-4° (Example Eight); type: biochemical
Procedure: (§2) Pertussis toxin was incubated at 37° C. for fifteen minutes as described in Example Six, and then a second incubation was begun by adding 10 μl buffer A with or without 12.5 mM iodoacetate, mixing the contents of the tube and lowering the temperature to 30° C. After fifteen minutes, the tubes were shifted to an ice bath for ten minutes. A third incubation was then begun by adding 10 μl buffer A containing 200 mM DTT to those tubes containing iodoacetate to scavenge the iodoacetate. To those tubes not containing iodoacetate during the second incubation, a mixture of 200 mM DTT and 12.5 mM iodoacetate in buffer A, previously incubated for an hour on ice, was added. The third incubation was continued for one hour on ice.
(§3) The contents of each tube were then assayed for NADase activity by adding 40 μl of a reaction mix consisting of buffer A containing carbon-14 labelled NAD (final concentration in the 100 μl final volume was 25 μM), and 50 mM sodium chloride. Different reaction mixtures with various additions were used, so that in all tubes the final concentration of ATP was 1 mM and CHAPS was 1 weight percent. The assay was conducted at 37° C. for sixty minutes, and the released labelled nicotinimide was isolated and counted. The iced controls were formed by incubating pertussis toxin (1 μg) on ice in 10 mM sodium phosphate (pH 7) and 50 mM sodium chloride during the first three incubations. […] The first three incubations were done under a nitrogen atmosphere using degassed conditions, and the second and third incubations were done under subdued light.
The procedure followed in Example Seven was repeated for this study, except that N-ethylmaleimide, chloroacetamide or chloroacetate were substituted for iodoacetate. After the 30° C. incubation, the tubes were either incubated for six minutes or eighteen hours at 0°-4° C. before the 10 μl of 200 mM DTT (with or without quenched reagent) was added. Those tubes receiving the DTT after six minutes were incubated for nineteen hours at 0°-4° C. prior to the NADase assay. Those receiving the DTT after eighteen hours were incubated with DTT for one hour, as in Example Seven. The tubes were then assayed for NADase activity at the same time.

pertussis toxin [5] = target: T1, pertussis toxin; assay: Inactivation of NADase activity by iodoacetate after different activator combinations (Example Seven); type: biochemical; conditions: additions to first incubation only (DTT 1 mM, ATP 1 mM, CHAPS 1%), second incubation none
Procedure: (§4) Pertussis toxin was incubated first at 37° C. for fifteen minutes in […] buffer A (100 mM Tris-HCl, pH 8.0 with 1 mM NaEDTA). EDTA was added to chelate divalent cations, which may promote oxidation of free --SH groups. During this incubation, DTT and ATP were present in concentrations of 1 mM each, and CHAPS was present in a concentration of 1 weight percent. Labelled iodoacetate was then added ([…], 12.5 mM), and the tube incubated on ice for twenty hours. The sample was then mixed with sodium dodecylsulfate and β-mercaptoethanol, heated at 95° C. for one minute, and electrophoresed. After electrophoresis, the gel was fixed, treated with Fluorohance (Research Products International), dried and used to expose x-ray film.
as §2, §3

[6] = test system: S1 -S5 subunits of the toxin; assay: Labelled iodoacetate incorporation into toxin subunits, electrophoresis and x-ray film (Examples Two and Six); parameters: species or system Bordetella pertussis; conditions: CHAPS added, compared with DTT and ATP or DTT alone
Procedure: Pertussis toxin (2.5 μg) was incubated for thirty minutes at 37° C. in 50 μl of 50 mM Tris-HCl (pH 8.0) with or without combinations of the activators ATP, CHAPS and DTT. During this incubation, ATP was 1 mM, CHAPS was 1 weight percent, and DTT was 0.5 mM, when present. Following this incubation, 75 nmol (1.34 microCi of iodo[^14 C]acetate and 25 μl of water were then added, and the tubes incubated for an additional thirty minutes under nitrogen gas at 30° C. in the dark. This labelling reaction was terminated by adding 1 ml of ice-cold water containing 7.5 mM non-radioactive iodoacetate, 2.5 μg bovine serum albumin, and 150 μg sodium deoxycholate. After ten minutes on ice, 100 μl 72% triochloroacetic acid was added, and the precipitate recovered by centrifugation. Sodium dodecylsulfate and beta-mercaptoethanol were added, the sample heated to 95° C. for one minute, and then electrophoresed using 15% polyacrylamide gels. The fixed gels were then treated, dried and used to expose x-ray film at -70° C.
as §4

pertussis toxin [7] = target: T1, pertussis toxin; assay: NADase activity in the presence of sulfhydryl reducing agents (Example Five); type: biochemical; conditions: 10 mM DTT without ATP
[8] = first incubation: ATP, DTT, CHAPS, 6 minutes at 0-4°
[9] = first incubation: ATP, DTT, CHAPS, 18 hours at 0-4°

T1 sequence (P04977 35-269 limits assumed): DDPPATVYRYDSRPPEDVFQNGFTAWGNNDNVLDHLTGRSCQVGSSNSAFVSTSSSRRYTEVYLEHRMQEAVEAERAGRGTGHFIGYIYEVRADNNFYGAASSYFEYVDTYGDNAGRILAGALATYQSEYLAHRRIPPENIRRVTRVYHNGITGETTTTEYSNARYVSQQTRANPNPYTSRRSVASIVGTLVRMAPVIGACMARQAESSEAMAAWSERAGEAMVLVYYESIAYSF
S1 -S5 subunits of the toxin, sequence (P04977 35-269 limits assumed): as above
S1 -S5 subunits of the toxin, sequence (P04978 28-226 limits assumed, further chain): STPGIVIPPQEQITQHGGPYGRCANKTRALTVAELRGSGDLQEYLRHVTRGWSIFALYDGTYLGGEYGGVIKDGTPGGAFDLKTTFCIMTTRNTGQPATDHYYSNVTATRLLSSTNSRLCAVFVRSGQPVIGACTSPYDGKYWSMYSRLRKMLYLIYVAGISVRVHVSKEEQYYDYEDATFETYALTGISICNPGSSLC
S1 -S5 subunits of the toxin, sequence (P04979 29-227 limits assumed, further chain): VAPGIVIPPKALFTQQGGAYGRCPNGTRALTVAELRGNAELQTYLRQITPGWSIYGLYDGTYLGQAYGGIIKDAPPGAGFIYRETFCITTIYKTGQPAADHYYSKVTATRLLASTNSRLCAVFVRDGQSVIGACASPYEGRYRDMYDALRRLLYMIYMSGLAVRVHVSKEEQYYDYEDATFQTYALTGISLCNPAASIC
S1 -S5 subunits of the toxin, sequence (P0A3R5 43-152 limits assumed, further chain): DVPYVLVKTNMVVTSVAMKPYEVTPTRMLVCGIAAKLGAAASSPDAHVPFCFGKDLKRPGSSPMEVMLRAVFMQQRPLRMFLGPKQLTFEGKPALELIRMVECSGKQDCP
S1 -S5 subunits of the toxin, sequence (P04981 35-133 limits assumed, further chain): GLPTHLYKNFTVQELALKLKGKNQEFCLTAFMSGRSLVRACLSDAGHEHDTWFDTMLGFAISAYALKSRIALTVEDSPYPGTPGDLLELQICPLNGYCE

N[C@@H](CS)C(=O)O [cysteine]
Effectiveness as sulfhydryl reductant to prepare the toxin for deactivation, in words (pertussis toxin [1]): effective
activation constant (pertussis toxin [1]; in the presence of ATP and CHAPS): the same constant

N[C@@H](CCC(=O)N[C@@H](CS)C(=O)NCC(=O)O)C(=O)O [glutathione]
Effectiveness as sulfhydryl reductant to prepare the toxin for deactivation, in words (pertussis toxin [1]): effective
EC50 (pertussis toxin [1]; in the presence of ATP and CHAPS, read-out: activation constant): 2000 µM

Triton X-100
Fractional Activity with CHAPS (pertussis toxin [2]): 1.05
Fractional Activity without CHAPS (pertussis toxin [2]): 0.58

NP-40
Fractional Activity with CHAPS (pertussis toxin [2]): 0.97
Fractional Activity without CHAPS (pertussis toxin [2]): 0.54

CCN1C(=O)C=CC1=O [N-ethylmaleimide]
NADase activity (%) of the activity of toxin treated the same way without alkylating agent (pertussis toxin [3]; first incubation: DTT 1 mM, CHAPS 2%, ATP 2 mM, Experiment #2, second incubation 15 min at 30° C, 25 μM NAD): 13%
NADase activity (%) of the activity of toxin treated the same way without alkylating agent (pertussis toxin [3]; first incubation: DTT 1 mM, CHAPS 2%, pyrophosphate 2 mM, Experiment #2, second incubation 15 min at 30° C, 25 μM NAD): 46%
NADase activity (%) of the activity of toxin treated the same way without alkylating agent (pertussis toxin [3]; first incubation: DTT 2 mM, CHAPS 2%, ATP 2 mM, Experiment #1, second incubation 30 min at 30° C, 125 μM NAD): 11%
NADase activity (%) of the activity of toxin treated the same way without alkylating agent (pertussis toxin [3]; first incubation: DTT 2 mM, CHAPS 2%, pyrophosphate 2 mM, Experiment #1, second incubation 30 min at 30° C, 125 μM NAD): 60%
NADase activity (%) of the activity of toxin treated the same way without alkylating agent (pertussis toxin [3]; first incubation: none, Experiment #1, second incubation 30 min at 30° C, 125 μM NAD): 90%
NADase activity (%) of the activity of toxin treated the same way without alkylating agent (pertussis toxin [3]; first incubation: none, Experiment #2, second incubation 15 min at 30° C, 25 μM NAD): 106%
NADase activity (pertussis toxin [4]; [8]): 16 pmol per μg per hour
percent of activity with no addition to second incubation (pertussis toxin [4]; [8]): 15%
NADase activity (pertussis toxin [4]; [9]): 10 pmol per μg per hour
percent of activity with no addition to second incubation (pertussis toxin [4]; [9]): 10%

C[C@H](CCC(=O)NCCC[N+](C)(C)CCCS(=O)(=O)[O-])[C@H]1CC[C@H]2[C@@H]3[C@H](O)C[C@@H]4C[C@H](O)CC[C@]4(C)[C@H]3C[C@H](O)[C@]12C [CHAPS, 3-[(3-cholamidopropyl)-dimethylammonio]-1-propane sulfonate]
NADase activity in the presence of CHAPS alone (pertussis toxin [2]; 1% CHAPS, two trials): 153 units per microgram and 158 units per microgram
Percent NADase activity relative to iced control (pertussis toxin [5]): 106
NADase activity (pertussis toxin [4]; additions to first incubation only, second incubation none, 18 hours at 0-4°): 186 pmol per μg per hour
Peak indicating the alkylation of the S1 subunit [6]: increases
Peaks indicating alkylation of the S2 and S3 subunits [6]: substantially decreases

O[C@H](CS)[C@H](O)CS (racemic) [DTT, dithiothreitol]
Effectiveness as sulfhydryl reductant to prepare the toxin for deactivation, in words (pertussis toxin [1]): effective
NADase activity (pertussis toxin [1]; 10 mM DTT with 1 mM ATP): 147 U per microgram toxin and 195 U per microgram toxin
EC50 (pertussis toxin [1]; read-out: concentration for half of the maximum effect (A0.5)): 200 µM
EC100 (pertussis toxin [1]; read-out: concentration showing full activation): 1000 µM
remaining activity at 1000 µM (pertussis toxin [5]; read-out: Percent NADase activity relative to iced control): 38%
NADase activity (pertussis toxin [7]): 18 U per microgram toxin and 36 U per microgram toxin
